The text below walks through data of patent publication US20090124634A1, “Novel dipodazine compounds and applications” (Viogard AB, priority 2005, published 2009).

Marks after values point to notes of the source that are not given here.

The term EC50 denotes the concentration at which the effect is half-maximal. For orientation: melting point means the temperature, or range, at which the solid turns liquid.

For one data set, the system named is B. improvisus. Kind of data set: Field experiment, paint-coated panels in sea water: recruitment/settlement of B. improvisus. The data set is classed as in vivo, Balanus improvisus. The note with it: for reduction of settlement of B. Improvisus: panels eight weeks in sea water, 0.2-1.5 m depth (FIG. 1); for Reduction of recruitment (%): B. improvisus. From the text: (§1) The effects of barettin and 8,9-Dihydrobarettin on B. improvisus recruitment was studied, by formulating different paints with different concentrations of the active substances.
(§2) The paints were commercially available paints and the four different paints are listed below:
One compound according to the present invention, benzo[g]dipodazine, which is the at present preferred compound, was formulated in a commercially available paint (SPF, from Lotréc, Lidingö, Sweden). The concentration of benzo[g]dipodazine in the paint was 0.1% and 0.01% based on the weight of the paint.
The paint was coated on panels in the same way as described above in Example 1 (comparative example). A control panel was coated with the same paint without benzo[g]dipodazine. All panels were immersed in sea water at a depth of 0.2-1.5 m, and maintained in the water for eight weeks.

For data set [1], the system named is cyprids larvae of B. improvisus. The data set is described as follows: Larval settlement assay (barnacle cyprids in dishes), incl. reversibility test. The format is in vivo, Balanus improvisus. The procedure: Barnacle cyprids larvae of B. improvisus was reared in the laboratory as described in [2]. The settlement propensity and mortality of barnacle cyprids were used to evaluate the bioactive effect of barettin and analogues. Stock solutions of all compounds shown in FIG. 4 were prepared by dissolving the compounds in dimethylsulfoxide (DMSO). The stock solutions were further diluted in filtered seawater (FSW, Millipore 0.2 μm) to yield the desired concentrations of 1×10^−4, 1×10^−3 and 1×10^−2 mg ml^−1. The settlement assays were performed using Petri dishes of untreated polystyrene (Nunc no 240045, Ø 48 mm) containing 10 ml of FSW to which 20±5 cyprids were added. Cyprids were used on their first or second day after moulting. Each treatment with a specific analogue was replicated 4 times and dishes with FSW only or FSW containing DMSO (0.1%) served as controls. Dishes were maintained for 3-4 days at room temperature (21±2° C.) in the prevailing light:dark cycle of 9:15 h. The effects of the different analogues, classified as either neutral, stimulatory or inhibitory, on the cyprids, were determined by examining the dishes under a stereo microscope and checking for 1) attached and metamorphosed individuals, 2) non-metamorphosed, alive, non-attached cyprids and 3) dead cyprids. Each substance was tested at least in two independent experimental series. […]

A further data set has as its system M. edulis. The data set is described as follows: Field experiment, paint-coated panels in sea water: recruitment of M. edulis. The format is in vivo, Mytilus edulis.
From the text: as §1, §2
Also, the effects of barettin and 8,9-dihydrobarettin on M. edulis recruitment were studied. When analyzing the data on the recruitment of M. edulis in the present field experiment, in a 3-factor analysis of variance with substance, paint and concentration as fixed factors, there was a significant interaction between the factors substance and paint. The main contribution to the significant interaction between the factors substance and paint is the result of barettin in combination with the SPF paint. […] However, the SNK-test could not reveal any significant differences between data.

Data set [2] has as its system cyprids larvae of B. improvisus. Conditions: B. improvisus cypris larvae, from ref [27], cited from earlier work; for EC50: read-out: EC50, inhibition of settlement of cypris larvae.
Where [3] appears, read: FabiEco paint, 0.01% in paint, listed as 8,9-dihydro-barettin.
Where [4] appears, read: FabiEco paint, 0.1% in paint, listed as 8,9-dihydro-barettin.
Where [5] appears, read: SPF paint, 0.01% in paint, 8-week period.
[6] abbreviates: SPF paint, 0.1% in paint, 8-week period.
Setting [7] is: SPF paint, 0.01% in paint, vs control panels.
The mark [8] stands for this setting: SPF paint, 0.1% in paint, vs control panels.

In the case of `O=C1CNC(=O)/C(=C/c2c[nH]c3c2ccc2ccccc23)N1` [benzo[g]dipodazine], the “reduction of settlement of B. Improvisus” value in the data set on B. improvisus (SPF paint, 0.01% by weight of paint) was “about 73%”; in the data set with B. improvisus (SPF paint, 0.1% by weight of paint), “about 85%”. The “inhibition of settlement of cyprids” value in data set [1] (34 μM in dishes (FIG. 2A)) is “complete inhibition”. Moreover, in data set [1] (totally inhibited cyprids transferred to fresh sea water (FSW) (FIG. 2B)), the “reversibility: ability of cyprids to settle again in fresh seawater after exposure” value was “regained this capability when transferred to fresh sea water”.

As to `N=C(N)NCCC[C@@H]1NC(=O)[C@H](Cc2c[nH]c3cc(Br)ccc23)NC1=O` [8,9-dihydrobarettin], the “Reduction of recruitment (%)” value in the data set on M. edulis (FabiEco paint, 0.01% in paint) is reported as 50%; in the data set with M. edulis (setting [3]), 50* %; in the data set with M. edulis (FabiEco paint, 0.1% in paint) it was 67%; in the data set with M. edulis (setting [4]), 67** %; with M. edulis (H2000 paint, 0.01% in paint) it was 53%; in the data set on M. edulis (H2000 paint, 0.01% in paint, listed as 8,9-dihydro-barettin) it was 53* %. Further, the “Reduction of recruitment (%)” value in the data set on M. edulis (H2000 paint, 0.1% in paint) was 39%; in the data set with M. edulis (setting [5]), 52%; with M. edulis (setting [6]) it was 72%; with M. edulis (SPF paint, 0.1% in paint, 8-week period, listed as 8,9-dihydro-barettin) it was 72** %; with M. edulis (TF paint, 0.01% in paint), −28%; with M. edulis (TF paint, 0.1% in paint), 3.8%. Moreover, the “Reduction of recruitment (%)” value in the data set with B. improvisus (FabiEco paint, 0.01% in paint) is given as 59%; in the data set on B. improvisus (setting [3]), 59* %; with B. improvisus (FabiEco paint, 0.1% in paint) it was 69%; in the data set on B. improvisus (setting [4]), 69*** %; with B. improvisus (H2000 paint, 0.01% in paint), 46%; in the data set with B. improvisus (H2000 paint, 0.1% in paint), 20%. Besides, the “Reduction of recruitment (%)” value in the data set on B. improvisus (setting [7]) is listed as 43%; with B. improvisus (setting [8]) it was 61%; in the data set with B. improvisus (SPF paint, 0.1% in paint, vs control panels, listed as 8,9-dihydro-barettin) it was 61** %; in the data set with B. improvisus (TF paint, 0.01% in paint), −10%; with B. improvisus (TF paint, 0.1% in paint) it was −1%. The “effect on larval mortality” value in data set [2] was “none of the compounds displayed any significant effect on larval mortality”. Further, the EC50 in data set [2] is 7.9 µM.

As to `N=C(N)NCCC[C@@H]1NC(=O)/C(=C/c2c[nH]c3cc(Br)ccc23)NC1=O` [barettin], the “Reduction of recruitment (%)” value in the data set with M. edulis (FabiEco paint, 0.01% in paint) amounted to 51%; in the data set with M. edulis (FabiEco paint, 0.1% in paint), 47%; in the data set on M. edulis (H2000 paint, 0.01% in paint), 26%; with M. edulis (H2000 paint, 0.1% in paint) it was 12%; in the data set on M. edulis (setting [5]), 83%; in the data set on M. edulis (setting [6]), 81%. Besides, the “Reduction of recruitment (%)” value with M. edulis (TF paint, 0.01% in paint) is 51* %; with M. edulis (TF paint, 0.01% in paint, listed as Barettin), 51%; with M. edulis (TF paint, 0.1% in paint), 6%; in the data set with B. improvisus (FabiEco paint, 0.01% in paint), 45%; in the data set with B. improvisus (FabiEco paint, 0.1% in paint), 49%; in the data set with B. improvisus (H2000 paint, 0.01% in paint), 28%. The “Reduction of recruitment (%)” value in the data set on B. improvisus (H2000 paint, 0.1% in paint) worked out at 23%; with B. improvisus (setting [7]) it was 67%; in the data set with B. improvisus (setting [8]) it was 89%; in the data set on B. improvisus (TF paint, 0.01% in paint), 25%; with B. improvisus (TF paint, 0.1% in paint), 17%. In addition, in data set [2], the “effect on larval mortality” value is reported as “none of the compounds displayed any significant effect on larval mortality”. Besides, in data set [2], the EC50 was 0.9 µM.

For the compound `O=C1CNC(=O)C(=Cc2cc3ccccc3s2)N1` [compound 12, 3-[1-benzothiophen-2-yl-methylidene]-piperazine-2,5-dione], the melting point turned out to be 258 °C.
